Results from patent US20210292741A1, “COMBINATION THERAPEUTICS USING TUMOR TREATING FIELDS (TTFIELDS)” (THE BOARD OF REGENTS OF THE UNIVERSITY OF TEXAS SYSTEM, priority 2020, published 2021).

Test system: H1299, A549, H157, and H4006 cells
Assay: clonogenic survival assay, TTFields combined with E2F and CDK 4/6 inhibitors
Format: cell-based, Human
Conditions: single inhibitor plus TTFields, Highest Single Agent approach
Procedure: FIGS. 6A-6B provide the results of exemplary clonogenic survival assays in four lung cancer cells lines—H1299, A549, H157, and H4006 cells—under various conditions testing combinations of TTFields with agents that dysregulate E2F signaling or CDK4/6 signaling at 24, 48, and 72 hours. […] Cell survival after increased exposure to TTFields alone, or in combination with a E2F inhibitor, a CDK 4/6 inhibitor or to a combination of E2F inhibitor and CDK 4/6 inhibitor is shown.
Human NSCLC cell lines (H157, H4006, A549, and H1299) were purchased from American Tissue Culture Collection. All these cell lines were grown in RPMI medium supplemented with 10% (v/v) fetal bovine serum (Atlanta Biologicals, Flowery Branch, Ga., USA) and penicillin/streptavidin (final concentration 50 μg/ml; Sigma-Aldrich, St. Louis, Mo., U29SA). All cells were grown at 37° C. in a humidified incubator constantly supplied with 5% CO2.
The inovitro system (NovoCure Ltd, Haifa, Israel) was used to generate TTFields that use two pairs of electrodes printed perpendicularly on the outer walls of a Petri dish composed of high dielectric constant ceramic (lead magnesium niobate-lead titanite (PMN-PT)). […] The temperature was measured by 2 thermistors (Omega Engineering, Stamford, Conn., USA) attached to the ceramic walls. […]

For `CCOc1ccc(C(Nc2ccccn2)c2ccc3ccc(C)nc3c2O)cc1C` (stereo not shown) [HLM006474], the “cell killing in combination with TTFields as compared to TTFields alone” value was “enhanced cell killing synergistically”.
